Literature values, collected in publication PMC8879107, “A3 Adenosine Receptor Antagonists with Nucleoside Structures and Their Anticancer Activity” (Pharmaceuticals, 2022).

Key:
human A3AR = biological target: T1, human A3AR (Homo sapiens, UniProt P0DMS8); set-up: expressed in transfected cells; host or cells: CHO cells stably expressing A3AR and the GloSensor biosensor plasmid; method as in PMID 29763615, PMID 19839592; conditions: cited from earlier work
T1 sequence (P0DMS8 1-318): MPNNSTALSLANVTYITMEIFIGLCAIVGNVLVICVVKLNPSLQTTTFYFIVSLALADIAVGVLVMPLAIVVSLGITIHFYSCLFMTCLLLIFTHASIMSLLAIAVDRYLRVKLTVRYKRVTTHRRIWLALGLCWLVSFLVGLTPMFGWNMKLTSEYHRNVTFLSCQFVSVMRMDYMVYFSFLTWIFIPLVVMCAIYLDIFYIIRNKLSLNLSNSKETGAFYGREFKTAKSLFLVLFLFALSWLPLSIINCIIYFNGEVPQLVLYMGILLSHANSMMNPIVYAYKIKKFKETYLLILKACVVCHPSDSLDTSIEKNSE

[1] = tested on: human prostate (PC3), colon (Caco-2) and hepatocyte (Hep G2) carcinomas; set-up: method as in PMID 29763615; conditions: all three tumor cell lines PC3, Caco-2, Hep G2; cited from earlier work

Which results are given for `CNC(=O)[C@H]1O[C@@H](n2cnc3c(NC)nc(C#Cc4ccccc4)nc32)[C@H](O)[C@@H]1O` [Compound 3, N^6-methyl-2-phenylethynyladenosine-5′-N-methyluronamide, reference compound]?
functional behaviour at A3AR (human A3AR): full A3AR agonist; anticancer effect (cell growth inhibition) [1]: almost inactive
